Measurements as given in article PMC6359144 (International Journal of Molecular Sciences, 2019).

Assays:
[1] = test system: nude mice; experiment: In vivo toxicity in nude mice; parameters: species or system mouse; conditions: 1 × 100 mg/kg i.p., 1 × 200 mg/kg orally
Protocol: In vivo toxicity of 4d was studied in nude mice (Charles River Laboratories, Sulzfeld, Germany). These experiments were carried out following the institutional guidelines. 4d was formulated in 10% Tween80/10% ethanol/80% saline for administration. […] The body weight of the mice was assessed daily under therapy.

[2] = test system: acetyl–alpha-tubulin in 518A2 melanoma cells; experiment: Western blot and immunofluorescence of acetyl-alpha-tubulin; type: cell-based, human; conditions: 4f 4, 5, 6 µM (blot), 4 µM (immunofluorescence), 24 h
Protocol: After harvesting the cells by trypsination, they were pelleted by centrifugation (300× g, 5 min) followed by cell lysis in 100 µL lysis buffer (20 mM DTT, 200 µM sodium vanadate, 50 mM Tris/HCl, 1% triton X-100, 150 mM NaCl, pH 7.4) for 10 min on ice. […] Equal amounts of total protein were subjected to 10% SDS-polyacrylamide gel electrophoresis (SDS-PAGE) and transferred to polyvinylidene difluoride membranes (PVDF, Carl Roth). For subsequent analysis of acetylated protein and of alpha-tubulin which was used as a loading control, membranes were blocked and incubated with primary antibody solutions in 5% bovine serum albumin in 1× TBS or 5% milk powder in PBS, respectively. The protein bands were visualized by chemoluminescence (secondary antibody-HRP conjugates, ECL detection system; Cell Signaling) using a LAS-3000 imager (Fujifilm).
Immuofluorescence staining of acetylated alpha- tubulin.
After washing the cells with PBS, they were fixed in 3.7% formaldehyde in PBS (20 min, rt) followed by blocking and permeabilization in TBS supplemented with 5% BSA and 0.1% triton X-100 (30 min, rt). […]
antibody conjugate in the dark (2 h, rt). […] Pictures were taken by using a Zeiss Imager A1 AX10 fluorescence microscope (400× magnification). […]
The open image area after 24 h (%) compared to that at 0 h was quantified from three independent experiments by using the imageJ 1.50i software. […]

Compound | body weight changes [1] | tolerability in mice ([1]; observed two weeks) | acetylation of alpha-tubulin [2]
COc1ccc(-c2ocnc2-c2cc(Br)c(OC)c(OC)c2)cc1OCCCC(=O)NO [4d, N-Hydroxy-4-[1-methoxy-4-(4’-(3’’-bromo-4’’,5’’-dimethoxyphenyl)oxazol-5’-yl)-2-phenoxy]butanamide] | ≤ 5% | tolerated well | 
COc1ccc(-c2ocnc2-c2cc(Br)c(OC)c(OC)c2)cc1OCCCCCC(=O)NO [4f, N-Hydroxy-6-[1-methoxy-4-(4’-(3’’-bromo-4’’,5’’-dimethoxyphenyl)oxazol-5’-yl)-2-phenoxy]hexanamide] |  |  | distinct increase of acetyl–alpha-tubulin
